system: Mycobacterium tuberculosis H37Rv growth inhibition, no glycerol; experiment: Mycobacterium tuberculosis H37Rv growth inhibition, no glycerol, confirmatory dose response (AID 449764); conditions: not given;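 note: growth read after 7 days of incubation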

| Structure (SMILES) | IC50 |
| --- | --- |
| O=[N+]([O-])c1cc([N+](=O)[O-])c2c(=Nc3ccccc3)n(-c3ccccc3)n(O)c2c1 | 8.32 µM |
| COc1cccc2c1C(CO)N1C(C#N)C3CC(C(=O)O)C(C1C2)N3C (configuration not stated) | 2.71 µM |
| O=C(OCC(=O)N1CCCc2ccccc21)c1ccc(S(=O)(=O)C(F)F)cc1 | 37.9 µM |
| NC(=S)N=Nc1ccc(NN=C(N)N)cc1 | 19.3 µM |
| CCc1cccc2c(C(=O)CCl)c[nH]c12 | 4.05 µM |
| CN(Cc1ccco1)c1ncnc2ccc(-c3ccc4c(ccn4C)c3)cc12 | 40.9 µM |
| Cc1ccc(/C(N)=N/OC(=O)N2c3ccccc3Sc3ccccc32)cc1 | 92.7 µM |
| Cc1cccc(-c2ncc(CN3CCC(CO)(CCCc4ccccc4)CC3)cn2)c1 | 48.5 µM |
| Cc1cc(C)c(C)c(N=Nc2nc3ccccc3n2C)c1C | 11.2 µM |
| Cc1ccc(C(C(=O)NCC2CCCO2)N(Cc2ccccc2)C(=O)c2ccc(-c3ccccc3)[nH]2)o1 (configuration not stated) | 60.9 µM |
| Cc1ccc(-n2c(C)cc(/C=N/NC(N)=S)c2C)cc1 | 12.2 µM |
| CCCCCCCCCCCCCCCC[N+](C)(C)CC | 36.1 µM |
| Cc1onc(-c2ccccc2Cl)c1C(=O)Oc1cccc2cccnc12 | 3.38 µM |
| C/C(=N/Nc1ccnc2cc(Cl)ccc12)c1ccc(O)cc1 | 30.1 µM |
| CCOC(=O)C1CCCN(c2ncnc3c2cnn3-c2ccc(OC)cc2)C1 (configuration not stated) | 5.82 µM |
| COc1ccc(Cc2nc3ccc(C(=O)NCCCSC)cc3o2)cc1OC | 43.1 µM |
| C=C1c2c(Cl)ccc(O)c2C(O)=C2C(=O)[C@]3(O)C(O)=C(C(N)=O)C(=O)[C@@H](N(C)C)[C@@H]3[C@@H](O)C12 (some centres not stated) | 4.52 µM |
| CC/C(=C(\c1ccc(O)cc1)c1ccc(OCCN(C)C)cc1)c1ccccc1 | 26.5 µM |
| O=C(COC(=O)C1=COCCO1)Nc1cccc(Oc2ccccc2)c1 | 9.49 µM |
| S=C(NCCN1CCOCC1)N/N=C/c1cccs1 | 6.31 µM |
| O=C(/C=C/Sc1ncn[nH]1)c1ccc(Cl)cc1 | 34.7 µM |

| Structure (SMILES) | IC50 |
| --- | --- |
| Cc1ccc(/C=C2\SC(N3CCCC3)=NC2=O)cc1 | 0.74 µM |
| CCC(=O)Oc1ccc(C(=O)Nc2ccc3c(c2)C(=O)N(C2CCCCC2)C3=O)cc1 | 24.1 µM |
| O=c1c2cc(Br)cc(Br)c2oc2nc3n(c(=O)c12)CCCS3 | 10.4 µM |
| Cc1cc(-c2cc(-c3ccccc3)on2)nc(NC2CCCC2)n1 | 34.5 µM |
| Cc1ccc(Cl)cc1N1CCN(C(=O)C2CCC(=O)N(C3CCCCCC3)C2)CC1 (configuration not stated) | 28.7 µM |
| O=C1C2C(c3ccccc3)(C(=O)N1c1ccc(Cl)cc1)C2(c1ccccc1)c1ccccc1 (configuration not stated) | 11.6 µM |
| CN(c1ccccc1)S(=O)(=O)c1cccc(C(=O)NCc2ccccc2CN2CCCC2)c1 | 63.2 µM |
| CC(Oc1ccc2ccccc2c1)C(=O)NNC(=S)NC(=O)c1ccco1 (configuration not stated) | 22.4 µM |
| COc1ccc(N2CCN(C(=O)c3ccc(CNc4c(N5CCOCC5)c(=O)c4=O)cc3)CC2)cc1 | 2.96 µM |
| CN(C(=S)NC(=O)c1ccc(Cl)cc1)C1CCCCC1 | 9.46 µM |
| CN(CCCCCCCCCCN(C)C(=O)Oc1cccc([N+](C)(C)C)c1)C(=O)Oc1cccc([N+](C)(C)C)c1 | 2.17 µM |
| Cc1ccccc1NC1=C/C(=N\S(=O)(=O)c2cccs2)c2ccccc2C1=O | 11.3 µM |
| CCc1ccc(NC(=O)CSc2nc3n[nH]c(C)c3c(=N)n2-c2cccc(OC)c2)cc1 | 72.8 µM |
| CCc1nc(N2CCN(C(C)=O)CC2)c2c3c(sc2n1)CC(C(C)(C)C)CC3 (configuration not stated) | 17.9 µM |
| O=C(c1cnn2c(C(F)F)cc(-c3ccccc3)nc12)N1CCc2ccccc2C1 | 35.4 µM |
| O=c1c(O)c(-c2cccs2)oc2ccccc12 | 34.4 µM |
| COc1ccc(-c2csc3ncnc(N4CCN(c5ccccc5OC)CC4)c23)cc1 | 22.8 µM |
| Cn1nc(-c2ccc(N3CCCCC3)c(NC(=O)c3ccco3)c2)c2ccccc2c1=O | 8.18 µM |
| CC(=O)c1cccc2c(O)c(C3=Nc4ccccc4C3=O)[nH]c12 | 11.5 µM |
| COC(=O)C(C)Oc1ccc(Cc2ncc(C(F)(F)F)cc2Cl)cc1 (configuration not stated) | 3.43 µM |
| CCOC(=O)C1CCN(C(=O)CSCc2nc(-c3ccc(OCC)cc3)oc2C)CC1 | 46 µM |

| Structure (SMILES) | IC50 |
| --- | --- |
| NN(Cc1ccccc1)C(=S)Nc1ccc(Cl)c(Cl)c1 | 25.2 µM |
| COc1ccc(NCc2nnc(SCC(=O)c3ccc(OC)cc3)o2)cc1 | 20.8 µM |
| CC(NCCCOc1cccc2ccccc12)c1ccccc1 (configuration not stated) | 25.1 µM |
| Cc1ccc(S(=O)(=O)N(C)c2ccc(OCC(=O)OCc3ccc(C#N)cc3)cc2)cc1 | 17.3 µM |
| Nc1ccc(N=Nc2ccccc2)c2cccnc12 | 34.7 µM |
| CC(C)(C)OC(=O)NNc1c2ccccc2nc2ccccc12 | 22.6 µM |
| O=C(/C=C/c1c(F)cccc1Cl)c1ccc(F)cc1 | 46.2 µM |
| Cc1cc(C(=O)CCl)c(C)n1CCc1ccc(Cl)cc1 | 3.95 µM |
| S=C(Nc1ccc(Nc2ccccc2)cc1)Nc1ccccn1 | 48.6 µM |
| NC1=NC2(CCC(c3ccccc3)CC2)n2c(nc3ccccc32)N1 (configuration not stated) | 32.5 µM |
| Oc1cccc(-c2nc3ccc4ccccc4c3c3c2CCC3)c1 | 32.4 µM |
| O=C1CCCC2=C1C1c3ccccc3C(=O)N1c1ccc(C(=O)c3ccccc3)cc1N2 (configuration not stated) | 22 µM |
| CCc1ccc(/C=C2/C(=O)N(C)C(=S)N2CC(=O)OC)s1 | 4.81 µM |
| O=c1/c(=C\c2ccc(O)cc2)sc2n1C(c1ccccc1)C(c1ccccc1)=NN=2 (configuration not stated) | 41.1 µM |
| Cc1nonc1NC(=O)CSc1ccc(-c2ccccc2)nn1 | 41.2 µM |
| CNC(=S)Nc1ccc(N2CCN(c3ccc(C(F)(F)F)cn3)CC2)nc1 | 9.42 µM |
| Cc1ncsc1CCOC(=O)c1ccc([N+](=O)[O-])cc1 | 20.1 µM |
| COc1ccc(-c2c[n+]3c4n2CCCCC4=C(c2ccccc2)C3)cc1 | 63.1 µM |
| COc1ccc(N2CCN(C(=O)c3cc4c(C)nc5ccccc5c4o3)CC2)cc1 | 81.3 µM |
| Nc1ccc(Oc2ccc(F)cc2)nc1 | 70.1 µM |
| Cc1ccccc1-n1sc2cc(F)ccc2c1=O | 22 µM |

same assay, conditions: measured here: IC90 growth inhibition

| Structure (SMILES) | IC90 |
| --- | --- |
| O=[N+]([O-])c1cc([N+](=O)[O-])c2c(=Nc3ccccc3)n(-c3ccccc3)n(O)c2c1 | 10.3 µM |
| COc1cccc2c1C(CO)N1C(C#N)C3CC(C(=O)O)C(C1C2)N3C (configuration not stated) | 3 µM |
| O=C(OCC(=O)N1CCCc2ccccc21)c1ccc(S(=O)(=O)C(F)F)cc1 | 49.2 µM |
| NC(=S)N=Nc1ccc(NN=C(N)N)cc1 | 27.6 µM |
| CCc1cccc2c(C(=O)CCl)c[nH]c12 | 7.83 µM |
| CN(Cc1ccco1)c1ncnc2ccc(-c3ccc4c(ccn4C)c3)cc12 | 59.4 µM |
| Cc1ccc(/C(N)=N/OC(=O)N2c3ccccc3Sc3ccccc32)cc1 | > 100 µM |
| Cc1cccc(-c2ncc(CN3CCC(CO)(CCCc4ccccc4)CC3)cn2)c1 | 55.1 µM |
| Cc1cc(C)c(C)c(N=Nc2nc3ccccc3n2C)c1C | 12.6 µM |
| Cc1ccc(C(C(=O)NCC2CCCO2)N(Cc2ccccc2)C(=O)c2ccc(-c3ccccc3)[nH]2)o1 (configuration not stated) | > 100 µM |
| Cc1ccc(-n2c(C)cc(/C=N/NC(N)=S)c2C)cc1 | 20 µM |
| CCCCCCCCCCCCCCCC[N+](C)(C)CC | 48.4 µM |
| Cc1onc(-c2ccccc2Cl)c1C(=O)Oc1cccc2cccnc12 | 3.98 µM |
| C/C(=N/Nc1ccnc2cc(Cl)ccc12)c1ccc(O)cc1 | 36.2 µM |
| CCOC(=O)C1CCCN(c2ncnc3c2cnn3-c2ccc(OC)cc2)C1 (configuration not stated) | 10.3 µM |
| COc1ccc(Cc2nc3ccc(C(=O)NCCCSC)cc3o2)cc1OC | 65.2 µM |
| C=C1c2c(Cl)ccc(O)c2C(O)=C2C(=O)[C@]3(O)C(O)=C(C(N)=O)C(=O)[C@@H](N(C)C)[C@@H]3[C@@H](O)C12 (some centres not stated) | 7.01 µM |
| CC/C(=C(\c1ccc(O)cc1)c1ccc(OCCN(C)C)cc1)c1ccccc1 | 45 µM |
| O=C(COC(=O)C1=COCCO1)Nc1cccc(Oc2ccccc2)c1 | 37.2 µM |
| S=C(NCCN1CCOCC1)N/N=C/c1cccs1 | 7.16 µM |
| O=C(/C=C/Sc1ncn[nH]1)c1ccc(Cl)cc1 | 55.1 µM |
| Cc1ccc(/C=C2\SC(N3CCCC3)=NC2=O)cc1 | 4.62 µM |

| Structure (SMILES) | IC90 |
| --- | --- |
| CCC(=O)Oc1ccc(C(=O)Nc2ccc3c(c2)C(=O)N(C2CCCCC2)C3=O)cc1 | 28.3 µM |
| O=c1c2cc(Br)cc(Br)c2oc2nc3n(c(=O)c12)CCCS3 | 23.3 µM |
| Cc1cc(-c2cc(-c3ccccc3)on2)nc(NC2CCCC2)n1 | 56.6 µM |
| Cc1ccc(Cl)cc1N1CCN(C(=O)C2CCC(=O)N(C3CCCCCC3)C2)CC1 (configuration not stated) | 40.4 µM |
| O=C1C2C(c3ccccc3)(C(=O)N1c1ccc(Cl)cc1)C2(c1ccccc1)c1ccccc1 (configuration not stated) | 13.6 µM |
| CN(c1ccccc1)S(=O)(=O)c1cccc(C(=O)NCc2ccccc2CN2CCCC2)c1 | 77.9 µM |
| CCCCCNc1nc(N2CCCC2)c2c(c1C#N)CCN(C)C2 | > 100 µM |
| CC(Oc1ccc2ccccc2c1)C(=O)NNC(=S)NC(=O)c1ccco1 (configuration not stated) | 31.9 µM |
| COc1ccc(N2CCN(C(=O)c3ccc(CNc4c(N5CCOCC5)c(=O)c4=O)cc3)CC2)cc1 | 3.24 µM |
| CN(C(=S)NC(=O)c1ccc(Cl)cc1)C1CCCCC1 | 14.7 µM |
| CN(CCCCCCCCCCN(C)C(=O)Oc1cccc([N+](C)(C)C)c1)C(=O)Oc1cccc([N+](C)(C)C)c1 | 3.44 µM |
| Cc1ccccc1NC1=C/C(=N\S(=O)(=O)c2cccs2)c2ccccc2C1=O | 12.3 µM |
| CCc1ccc(NC(=O)CSc2nc3n[nH]c(C)c3c(=N)n2-c2cccc(OC)c2)cc1 | > 100 µM |
| CCc1nc(N2CCN(C(C)=O)CC2)c2c3c(sc2n1)CC(C(C)(C)C)CC3 (configuration not stated) | 21.5 µM |
| O=C(c1cnn2c(C(F)F)cc(-c3ccccc3)nc12)N1CCc2ccccc2C1 | 48.6 µM |
| O=c1c(O)c(-c2cccs2)oc2ccccc12 | > 100 µM |
| COc1ccc(-c2csc3ncnc(N4CCN(c5ccccc5OC)CC4)c23)cc1 | 25.5 µM |
| Cn1nc(-c2ccc(N3CCCCC3)c(NC(=O)c3ccco3)c2)c2ccccc2c1=O | 12.2 µM |
| CC(=O)c1cccc2c(O)c(C3=Nc4ccccc4C3=O)[nH]c12 | 12.9 µM |
| COC(=O)C(C)Oc1ccc(Cc2ncc(C(F)(F)F)cc2Cl)cc1 (configuration not stated) | 5.97 µM |
| CCOC(=O)C1CCN(C(=O)CSCc2nc(-c3ccc(OCC)cc3)oc2C)CC1 | 49.2 µM |
| NN(Cc1ccccc1)C(=S)Nc1ccc(Cl)c(Cl)c1 | 39.4 µM |

| Structure (SMILES) | IC90 |
| --- | --- |
| COc1ccc(NCc2nnc(SCC(=O)c3ccc(OC)cc3)o2)cc1 | 22.9 µM |
| CC(NCCCOc1cccc2ccccc12)c1ccccc1 (configuration not stated) | 28 µM |
| Cc1ccc(S(=O)(=O)N(C)c2ccc(OCC(=O)OCc3ccc(C#N)cc3)cc2)cc1 | 28.3 µM |
| Nc1ccc(N=Nc2ccccc2)c2cccnc12 | 64.2 µM |
| CC(C)(C)OC(=O)NNc1c2ccccc2nc2ccccc12 | 25.2 µM |
| O=C(/C=C/c1c(F)cccc1Cl)c1ccc(F)cc1 | 73 µM |
| Cc1cc(C(=O)CCl)c(C)n1CCc1ccc(Cl)cc1 | 9.41 µM |
| S=C(Nc1ccc(Nc2ccccc2)cc1)Nc1ccccn1 | > 50 µM |
| NC1=NC2(CCC(c3ccccc3)CC2)n2c(nc3ccccc32)N1 (configuration not stated) | 43.7 µM |
| Oc1cccc(-c2nc3ccc4ccccc4c3c3c2CCC3)c1 | 54.3 µM |
| O=C1CCCC2=C1C1c3ccccc3C(=O)N1c1ccc(C(=O)c3ccccc3)cc1N2 (configuration not stated) | 24.4 µM |
| CCc1ccc(/C=C2/C(=O)N(C)C(=S)N2CC(=O)OC)s1 | 6.97 µM |
| O=c1/c(=C\c2ccc(O)cc2)sc2n1C(c1ccccc1)C(c1ccccc1)=NN=2 (configuration not stated) | 66 µM |
| Cc1nonc1NC(=O)CSc1ccc(-c2ccccc2)nn1 | 58.9 µM |
| CNC(=S)Nc1ccc(N2CCN(c3ccc(C(F)(F)F)cn3)CC2)nc1 | > 100 µM |
| Cc1ncsc1CCOC(=O)c1ccc([N+](=O)[O-])cc1 | 37.2 µM |
| COc1ccc(-c2c[n+]3c4n2CCCCC4=C(c2ccccc2)C3)cc1 | 78.7 µM |
| COc1ccc(N2CCN(C(=O)c3cc4c(C)nc5ccccc5c4o3)CC2)cc1 | > 100 µM |
| Nc1ccc(Oc2ccc(F)cc2)nc1 | 85.7 µM |
| Cc1ccccc1-n1sc2cc(F)ccc2c1=O | 24.6 µM |

Reference: PubChem BioAssay AID449764 (Southern Research Specialized Biocontainment Screening …, 2010)
